PubChem BioAssay AID1845196 (Molecular Pharmacology Branch, DTP, NCI, 2023)

System: 292921-168-R tumor spheroid viability
Assay: Anticancer human tumor 292921-168-R patient-derived pancreatic carcinoma cell line growth inhibition
Conditions: spheroids with HUVEC and MSC; for IC50: curve of first compound; for viability, T/C: stronger effect = lower value
Outline: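 Single agents and combinations were tested on spheroids built from tumor cells plus HUVEC and hMSC, at half-log dilutions starting at or near clinical Cmax, else 10 microM; final DMSO 0.25% (v/v).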

[1] = second compound 0.003 µM, first compound 0.0316 µM
[2] = second compound 0.003 µM, first compound 0.1 µM
[3] = second compound 0.003 µM, first compound 0.316 µM
[4] = second compound 0.003 µM, first compound 1 µM
[5] = second compound 0.003 µM, first compound 3.16 µM
[6] = second compound 0.003 µM, first compound 10 µM
[7] = second compound 0.00949 µM, first compound 0.0316 µM
[8] = second compound 0.00949 µM, first compound 0.1 µM
[9] = second compound 0.00949 µM, first compound 0.316 µM
[10] = second compound 0.00949 µM, first compound 1 µM
[11] = second compound 0.00949 µM, first compound 3.16 µM
[12] = second compound 0.00949 µM, first compound 10 µM
[13] = second compound 0.03 µM, first compound 0.0316 µM
[14] = second compound 0.03 µM, first compound 0.1 µM
[15] = second compound 0.03 µM, first compound 0.316 µM
[16] = second compound 0.03 µM, first compound 1 µM
[17] = second compound 0.03 µM, first compound 3.16 µM
[18] = second compound 0.03 µM, first compound 10 µM
[19] = second compound 0.0949 µM, first compound 0.0316 µM
[20] = second compound 0.0949 µM, first compound 0.1 µM
[21] = second compound 0.0949 µM, first compound 0.316 µM
[22] = second compound 0.0949 µM, first compound 1 µM
[23] = second compound 0.0949 µM, first compound 3.16 µM
[24] = second compound 0.0949 µM, first compound 10 µM
[25] = second compound 0.3 µM, first compound 0.0316 µM
[26] = second compound 0.3 µM, first compound 0.1 µM
[27] = second compound 0.3 µM, first compound 0.316 µM
[28] = second compound 0.3 µM, first compound 1 µM
[29] = second compound 0.3 µM, first compound 3.16 µM
[30] = second compound 0.3 µM, first compound 10 µM
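Also: spheroids exposed to compounds for 7 days.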

For `CC(C)n1c(=O)n(C)c2cnc3cc(F)c(-c4ccc(OCCCN5CCCCC5)nc4)cc3c21` + CC[C@@]1(O)C(=O)OCc2c1cc1n(c2=O)Cc2cc3c(CN(C)C)c(O)ccc3nc2-1, the IC50 (second compound 0.003 µM) was < 31.6 nM, the IC50 (second compound 0.00949 µM) was < 31.6 nM and the IC50 (second compound 0.03 µM) was < 31.6 nM. The IC50 (second compound 0.0949 µM) was < 31.6 nM, the IC50 (second compound 0.3 µM) was < 31.6 nM and the viability, T/C [1] was 45.7%. The viability, T/C [2] was 42.4%, the viability, T/C [3] was 44.9% and the viability, T/C [4] was 42.3%. For the same molecule, the viability, T/C [5] was 41.4%, the viability, T/C [6] was 20.4% and the viability, T/C [7] was 25.4%. The viability, T/C [8] was 23.7%, the viability, T/C [9] was 22.3% and the viability, T/C [10] was 25.2%. For the same molecule, the viability, T/C [11] was 24.4%, the viability, T/C [12] was 18.7% and the viability, T/C [13] was 20.2%. For the same molecule, the viability, T/C [14] was 22.4%, the viability, T/C [15] was 20.4% and the viability, T/C [16] was 20.4%. It also gave a viability, T/C [17] of 23.2%, a viability, T/C [18] of 16.7% and a viability, T/C [19] of 13.2%. It also gave a viability, T/C [20] of 14.7%, a viability, T/C [21] of 13.7% and a viability, T/C [22] of 14.8%. It also gave a viability, T/C [23] of 16.8%, a viability, T/C [24] of 14.8% and a viability, T/C [25] of 4.72%. It also gave a viability, T/C [26] of 4.71%, a viability, T/C [27] of 5.4% and a viability, T/C [28] of 6.25%. It also gave a viability, T/C [29] of 8.92% and a viability, T/C [30] of 10.4%.

`CC1COCCN1c1cc(-c2ccnn2C)c2ccnc(-c3ccn[nH]3)c2n1` (stereo not given) + CC[C@@]1(O)C(=O)OCc2c1cc1n(c2=O)Cc2cc3c(CN(C)C)c(O)ccc3nc2-1 was tested, and the IC50 (second compound 0.003 µM) was < 31.6 nM, the IC50 (second compound 0.00949 µM) was < 31.6 nM and the IC50 (second compound 0.03 µM) was < 31.6 nM. For the same molecule, the IC50 (second compound 0.0949 µM) was < 31.6 nM, the IC50 (second compound 0.3 µM) was < 31.6 nM and the viability, T/C [1] was 22.8%. It also gave a viability, T/C [2] of 13.6%, a viability, T/C [3] of 10% and a viability, T/C [4] of 12.2%. The viability, T/C [5] was 14.4%, the viability, T/C [6] was 15.4% and the viability, T/C [7] was 11.6%. The viability, T/C [8] was 9.97%, the viability, T/C [9] was 10% and the viability, T/C [10] was 11.8%. It also gave a viability, T/C [11] of 13.8%, a viability, T/C [12] of 15% and a viability, T/C [13] of 8.44%. For the same molecule, the viability, T/C [14] was 7.98%, the viability, T/C [15] was 9.15% and the viability, T/C [16] was 10.8%. For the same molecule, the viability, T/C [17] was 12.5%, the viability, T/C [18] was 14.3% and the viability, T/C [19] was 4.99%. It also gave a viability, T/C [20] of 4.72%, a viability, T/C [21] of 5.08% and a viability, T/C [22] of 8.1%. For the same molecule, the viability, T/C [23] was 10.9%, the viability, T/C [24] was 12.6% and the viability, T/C [25] was 2.78%. It also gave a viability, T/C [26] of 2.83%, a viability, T/C [27] of 3.27% and a viability, T/C [28] of 4.98%. It also gave a viability, T/C [29] of 6.98% and a viability, T/C [30] of 9.23%.

With `COc1cc(C)[nH]c(=O)c1CN1CCc2c(Cl)cc(C(OC)C3COC3)c(Cl)c2C1=O` (stereo not given) + CC[C@@]1(O)C(=O)OCc2c1cc1n(c2=O)Cc2cc3c(CN(C)C)c(O)ccc3nc2-1 the IC50 (second compound 0.003 µM) was > 10000 nM, the IC50 (second compound 0.00949 µM) was > 10000 nM and the IC50 (second compound 0.03 µM) was 394 nM. The IC50 (second compound 0.0949 µM) was < 31.6 nM, the IC50 (second compound 0.3 µM) was < 31.6 nM and the viability, T/C [1] was 108%. It also gave a viability, T/C [2] of 102%, a viability, T/C [3] of 85% and a viability, T/C [4] of 90.7%. For the same molecule, the viability, T/C [5] was 88.7%, the viability, T/C [6] was 82.8% and the viability, T/C [7] was 92.6%. For the same molecule, the viability, T/C [8] was 94.1%, the viability, T/C [9] was 71.3% and the viability, T/C [10] was 71.5%. The viability, T/C [11] was 81.3%, the viability, T/C [12] was 63.3% and the viability, T/C [13] was 50.6%. The viability, T/C [14] was 59.1%, the viability, T/C [15] was 53.4% and the viability, T/C [16] was 39.2%. For the same molecule, the viability, T/C [17] was 40.2%, the viability, T/C [18] was 19.8% and the viability, T/C [19] was 13.1%. For the same molecule, the viability, T/C [20] was 15.6%, the viability, T/C [21] was 12.9% and the viability, T/C [22] was 9.42%. It also gave a viability, T/C [23] of 10.1%, a viability, T/C [24] of 7.35% and a viability, T/C [25] of 4.43%. The viability, T/C [26] was 4.26%, the viability, T/C [27] was 3.82% and the viability, T/C [28] was 2.93%. For the same molecule, the viability, T/C [29] was 3.15% and the viability, T/C [30] was 3.34%.

`COc1ccc([C@@H](O)c2cc(-c3ncnc4cc(N5CCOCC5)ccc34)c(F)cc2Cl)nn1` + CC[C@@]1(O)C(=O)OCc2c1cc1n(c2=O)Cc2cc3c(CN(C)C)c(O)ccc3nc2-1 was tested, and the IC50 (second compound 0.003 µM) was 1350 nM, the IC50 (second compound 0.00949 µM) was 974 nM and the IC50 (second compound 0.03 µM) was < 31.6 nM. The IC50 (second compound 0.0949 µM) was < 31.6 nM, the IC50 (second compound 0.3 µM) was < 31.6 nM and the viability, T/C [1] was 102%. For the same molecule, the viability, T/C [2] was 94.4%, the viability, T/C [3] was 77.8% and the viability, T/C [4] was 55.3%. The viability, T/C [5] was 34.8%, the viability, T/C [6] was 20.8% and the viability, T/C [7] was 77.5%. The viability, T/C [8] was 74.5%, the viability, T/C [9] was 71.9% and the viability, T/C [10] was 45.6%. It also gave a viability, T/C [11] of 32.9%, a viability, T/C [12] of 17.9% and a viability, T/C [13] of 41.8%. It also gave a viability, T/C [14] of 38.7%, a viability, T/C [15] of 34.5% and a viability, T/C [16] of 25.8%. The viability, T/C [17] was 21.5%, the viability, T/C [18] was 17.1% and the viability, T/C [19] was 10.8%. For the same molecule, the viability, T/C [20] was 12%, the viability, T/C [21] was 12.5% and the viability, T/C [22] was 13.2%. The viability, T/C [23] was 14.5%, the viability, T/C [24] was 13.8% and the viability, T/C [25] was 3.98%. For the same molecule, the viability, T/C [26] was 3.78%, the viability, T/C [27] was 4.06% and the viability, T/C [28] was 4.72%. The viability, T/C [29] was 6.62% and the viability, T/C [30] was 8.28%.

With `[2H]c1nc(C)nc([2H])c1-c1cc(NC[C@@H](C)c2cccc3c(C(=O)NC)ccnc23)ncn1` + CC[C@@]1(O)C(=O)OCc2c1cc1n(c2=O)Cc2cc3c(CN(C)C)c(O)ccc3nc2-1 the IC50 (second compound 0.003 µM) was > 10000 nM, the IC50 (second compound 0.00949 µM) was > 10000 nM and the IC50 (second compound 0.03 µM) was < 31.6 nM. For the same molecule, the IC50 (second compound 0.0949 µM) was < 31.6 nM, the IC50 (second compound 0.3 µM) was < 31.6 nM and the viability, T/C [1] was 101%. It also gave a viability, T/C [2] of 87.8%, a viability, T/C [3] of 96.9% and a viability, T/C [4] of 102%. It also gave a viability, T/C [5] of 93.8%, a viability, T/C [6] of 86.9% and a viability, T/C [7] of 83.3%. For the same molecule, the viability, T/C [8] was 81%, the viability, T/C [9] was 77.7% and the viability, T/C [10] was 76.9%. It also gave a viability, T/C [11] of 79.8%, a viability, T/C [12] of 70.9% and a viability, T/C [13] of 49.2%. The viability, T/C [14] was 35.9%, the viability, T/C [15] was 41.5% and the viability, T/C [16] was 37.4%. The viability, T/C [17] was 37.4%, the viability, T/C [18] was 23% and the viability, T/C [19] was 12.1%. The viability, T/C [20] was 13.4%, the viability, T/C [21] was 12.2% and the viability, T/C [22] was 12.6%. It also gave a viability, T/C [23] of 9.08%, a viability, T/C [24] of 8.57% and a viability, T/C [25] of 3.57%. For the same molecule, the viability, T/C [26] was 4.5%, the viability, T/C [27] was 3.67% and the viability, T/C [28] was 3.37%. For the same molecule, the viability, T/C [29] was 3.59% and the viability, T/C [30] was 2.83%.
